Measurements reported in patent US5624923A, “Tricyclic diazepine vasopressin antagonists and oxytocin antagonists” (priority 1995, dated 1997).

Tests used:
[1] = molecular target: T1, V1 Receptor Subtype in Human Platelet (Homo sapiens, UniProt P37288); experiment: Binding to Vasopressin V1 receptor subtype in Human Platelet Membranes; settings: for IC50: human platelet membranes; for inhibition at 1 µM: 1.5 h, human platelet
T1 construct: tissue Hudson Valley Blood Services, Westchester Medical Center, Valhalla, N.Y; host or cells: human platelets (frozen platelet rich plasma)
T1 sequence (P37288 whole entry): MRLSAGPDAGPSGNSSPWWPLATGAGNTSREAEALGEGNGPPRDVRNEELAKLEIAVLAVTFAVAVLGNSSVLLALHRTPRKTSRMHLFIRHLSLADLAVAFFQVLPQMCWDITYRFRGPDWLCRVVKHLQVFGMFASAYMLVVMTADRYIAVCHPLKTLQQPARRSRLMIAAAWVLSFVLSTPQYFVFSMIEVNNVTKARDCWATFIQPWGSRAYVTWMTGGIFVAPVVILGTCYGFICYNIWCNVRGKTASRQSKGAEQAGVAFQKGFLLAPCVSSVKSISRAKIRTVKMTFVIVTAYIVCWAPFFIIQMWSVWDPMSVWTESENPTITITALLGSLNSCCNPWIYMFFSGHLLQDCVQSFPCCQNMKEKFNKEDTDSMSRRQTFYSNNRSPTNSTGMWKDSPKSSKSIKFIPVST
Procedure: Radioligand Binding Experiments with Human Platelet Membranes (a) Platelet Membrane Preparation: Frozen platelet rich plasma (PRP), (Platelet Source: Hudson Valley Blood Services, Westchester Medical Center, Valhalla, N.Y.) are thawed to room temperature. The tubes containing the PRP are centrifuged at 16,000×g for 10 min. at 4° C. and the supernatant fluid discarded. […] The suspension is recentrifuged at 16,000× g for 10 min. This washing step is repeated one more time. The wash discarded and the lysed pellets homogenized in low ionic strength buffer of Tris.HCl, 5.0 mM, pH 7.5 containing 5.0 mM EDTA. The homogenate is centrifuged at 39,000× g for 10 min. The resulting pellet is resuspended in Tris. […] The final pellet is resuspended in 50.0 mM Tris. HCl buffer pH 7.4 containing 120 mM NaCl and 5.0 mM KCl to give 1.0-2.0 mg protein per ml of suspension. […] Platelet Membranes […] Then add 20 μl of [^3 H]Ligand (Manning or […] Vasopressin), to give final concentrations ranging from 0.01 to 10.0 nM. Initiate the binding by adding 80.0 μl of platelet suspension (approx. 100 μg protein). Mix all reagents by pipetting the mixture up and down a few times. Non specific binding is measured in the presence of 1.0 μM of unlabeled ligand (Manning or […] Vasopressin). Let the mixture stand undisturbed at room temperature for ninety (90) min. Upon this time, rapidly filter off the incubate under vacuum suction over GF/B filters, using a Brandel Harvester. Determine the radioactivity caught on the filter disks by the addition of liquid scintillant and counting in a liquid scintillator.

oxytocin receptors = molecular target: T2, oxytocin receptors (Rattus norvegicus, UniProt P70536); experiment: Oxytocin Receptor Binding; settings: for IC50: 1.0 nM [3H]oxytocin
T2 construct: The uteri are dissected out, cleaned of fat and connective tissues; from tissue; host or cells: uterus of DES-treated female Sprague-Dawley rats
T2 sequence (P70536 1-388): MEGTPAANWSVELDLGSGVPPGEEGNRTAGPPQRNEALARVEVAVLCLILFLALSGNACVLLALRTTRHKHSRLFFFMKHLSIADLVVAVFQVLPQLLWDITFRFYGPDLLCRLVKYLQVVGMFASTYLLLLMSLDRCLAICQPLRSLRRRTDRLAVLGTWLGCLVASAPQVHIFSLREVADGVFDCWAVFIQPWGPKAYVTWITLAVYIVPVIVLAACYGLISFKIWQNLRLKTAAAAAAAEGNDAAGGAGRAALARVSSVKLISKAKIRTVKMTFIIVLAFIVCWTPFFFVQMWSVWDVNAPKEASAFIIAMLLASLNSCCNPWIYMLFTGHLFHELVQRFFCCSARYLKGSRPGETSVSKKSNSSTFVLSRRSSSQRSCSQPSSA
Method in brief: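 IC50 is the concentration displacing 50% of 1.0 nM [3H]OT, incubated 60 min at 22 °C in pH 7.4 Tris/MgCl2 buffer plus protease inhibitors, then filtered. Receptor source: uterine membranes from rats given 0.3 mg/kg DES i.m. 18 h earlier. 1.0 uM cold OT defined non-specific binding.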

[2] = molecular target: T3, Human V2 Vasopressin Receptor (Homo sapiens, UniProt P30518); experiment: Binding to Membranes of Mouse Fibroblast Cell Line (LV-2) Transfected with the cDNA Expressing the Human V2 Vasopressin Receptor; settings: human V2; for IC50: LV-2 cell membranes, read-out: V2 IC50 (**)
T3 construct: expressed in transfected cells; host or cells: mouse fibroblast cell line LV-2
T3 sequence (P30518 whole entry): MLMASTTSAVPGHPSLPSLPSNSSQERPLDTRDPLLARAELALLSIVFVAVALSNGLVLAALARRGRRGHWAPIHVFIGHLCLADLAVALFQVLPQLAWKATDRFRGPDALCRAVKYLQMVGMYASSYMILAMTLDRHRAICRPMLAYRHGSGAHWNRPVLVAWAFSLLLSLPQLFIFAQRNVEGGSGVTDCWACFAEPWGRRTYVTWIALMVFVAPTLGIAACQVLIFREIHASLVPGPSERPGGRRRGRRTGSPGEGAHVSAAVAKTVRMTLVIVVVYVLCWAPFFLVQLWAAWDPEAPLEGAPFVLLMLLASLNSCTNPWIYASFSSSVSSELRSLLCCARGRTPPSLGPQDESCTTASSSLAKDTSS
Procedure: Binding to Membranes of Mouse Fibroblast Cell Line (LV-2) Transfected with the cDNA Expressing the Human V2 Vasopressin Receptor
Flasks of 175 ml capacity, containing attached cells grown to confluence, are cleared of culture medium by aspiration. The flasks containing the attached cells are rinsed with 2×5 ml of phosphate buffered saline (PBS) and the liquid aspirated off each time. Finally, 5 ml of an enzyme free dissociation Hank's based solution (Specialty Media, Inc., Lafayette, N.J.) is added and the flasks are left undisturbed for 2 min. The content of all flasks is. poured into a centrifuge tube and the cells pelleted at 300× g for 15 min. The Hank's based solution is aspirated off and the cells homogenized with a polytron at setting #6 for 10 sec in 10.0 mM Tris.HCl buffer, pH 7.4 containing 0.25M sucrose and 1.0 mM EDTA. The homogenate is centrifuged at 1500× g for 10 min to remove ghost membranes. The supernatant fluid is centrifuged at 100,000× g for 60 min. to pellet the receptor protein. Upon completion, the pellet is resuspended in a small volume of 50.0 mM Tris. HCl buffer, pH 7.4. The protein content is determined by the Lowry method and the receptor membranes are suspended in 50.0 mM Tris.HCl buffer containing 0.1 mM phenylmethylsulfonylfluoride (PMSF) and 0.2% bovine serum albumin (BSA) to give 2.5 mg receptor protein per ml of suspension.
Arginine^8, vasopressin (S.A. 75.0 Ci/mmole) at 0.8 nM and the reaction initiated by the addition of 80.0 μl of tissue membranes (200.0 μg tissue protein). The plates are left undisturbed on the bench top for 120 min to reach equilibrium. Non specific binding is assessed in the presence of 1.0 μM of unlabeled ligand, added in 20 μl volume. For test compounds, these are solubilized in 50% dimethylsulfoxide (DMSO) and added in 20.0 μl volume to a final incubation volume of 200 μl. Upon completion of binding, the content of each well is filtered off, using a Brandel® cell Harvester (Gaithersburg, Md.). The radioactivity trapped on the filter disk by the ligand-receptor complex is assessed by liquid scintillation counting in a Packard LS Counter, with an efficiency of 65% for tritium. The data are analyzed for IC50 values by the LUNDON-2 program for competition (LUNDON SOFTWARE, Ohio).

Vasopressin V2 = Vasopressin V2 Antagonist Activity in Conscious Hydrated Rats; assay type: in vivo, rat; settings: 10 mg/kg orally, AVP 0.4 μg/kg i.p.
Method in brief: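 Four-hour urine output, osmolality and electrolytes (Na+, K+, Cl−) recorded in water-loaded rats (30 mL/kg deionized water orally) given AVP i.p. at 0.4 μg/kg. Test compounds were given orally at 0.1–100 mg/kg 1 h before AVP; 2–4 rats per compound.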

Row | Structure (SMILES) | IC50 [1] [nM] | IC50 [2] [nM] | other results
1 | O=C(Nc1ccc(C(=O)N2Cc3cccn3Cc3ccccc32)c(Cl)c1)c1cccc(F)c1 [Example 538, N-[4-(5H-pyrrolo[2,1-c][1,4]benzodiazepin-10(11H)-ylcarbonyl)-3-chlorophenyl]-3-fluorobenzamide] | 52 | 1 | IC50 (oxytocin receptors): 900 nM; inhibition at 10 µM (oxytocin receptors; [3H]oxytocin): 90%
2 | Cc1ccc(F)cc1C(=O)Nc1ccc(C(=O)N2Cc3cccn3Cc3ccccc32)cc1Cl [Example 547, N-[4-(5H-pyrrolo[2,1-c][1,4]benzodiazepin-10(11H)-ylcarbonyl)-2-chlorophenyl]-5-fluoro-2-methylbenzamide] | 16 | 4 | IC50 (oxytocin receptors): 260 nM; inhibition at 5 µM (oxytocin receptors; dose 5 μM, [3H]oxytocin): 97%
3 | Cc1ccc(F)cc1C(=O)Nc1ccc(C(=O)N2Cc3ccnn3Cc3ccccc32)c(Cl)c1 [Example 518, N-[4-(4H-Pyrazolo[5,1-c][1,4]benzodiazepin-5(10H)-ylcarbonyl)-3-chlorophenyl]-5-fluoro-2-methylbenzamide] | 220 | 1.7 | Osmolality (Vasopressin V2): 363 mOsm/kg; Urine Volume (Vasopressin V2): 17.5 ml/4 hrs
4 | COc1ccc(C(=O)Nc2ccc(C(=O)N3Cc4cccn4Cc4ccccc43)c(Cl)c2)c(Cl)c1OC [Example 702, N-[4-(5H-pyrrolo[2,1-c][1,4]benzodiazepin-10(11H)-ylcarbonyl)-3-chloro-phenyl]-2-chloro-3,4-dimethoxybenzamide] | – | – | inhibition at 1 µM [1]: 9%; inhibition at 1 µM [2]: 85%
5 | O=C(Nc1ccc(C(=O)N2CCc3cccn3-c3ccccc32)c(Cl)c1)c1ccc(Cl)cc1Cl [Example 609, N-[4-[(6,7-Dihydro-5H-pyrrolo[1,2-a]-[1,5]benzodiazepin-5-yl)carbonyl]-3-chlorophenyl]-2,4-dichlorobenzamide] | 2400 | 21 | IC50 (oxytocin receptors): 2700 nM; inhibition at 10 µM (oxytocin receptors; [3H]oxytocin): 66%
6 | Cc1ccccc1CC(=O)Nc1ccc(C(=O)N2Cc3cccn3Cc3ccccc32)c(Cl)c1 [Example 697, N-[4-(5H-pyrrolo[2,1-c][1,4]benzodiazepin-10(11H)-ylcarbonyl)-3-chloro-phenyl]-2-methylbenzeneacetamide] | 620 | 3 | –
7 | Cc1c(F)cccc1C(=O)Nc1ccc(C(=O)N2Cc3cccn3Cc3ccccc32)cc1Cl [Example 546, N-[4-(5H-pyrrolo[2,1-c][1,4]benzodiazepin-10(11H)-ylcarbonyl)-2-chlorophenyl]-3-fluoro-2-methylbenzamide] | 66 | 73 | IC50 (oxytocin receptors): 990 nM; inhibition at 10 µM (oxytocin receptors; [3H]oxytocin): 91%
8 | COc1cc(NC(=O)c2cc(F)ccc2C)ccc1C(=O)N1Cc2cccn2Cc2ccccc21 [Example 695] | 15 | 1.8 | –
9 | COc1cc(C(=O)N2Cc3cccn3Cc3ccccc32)ccc1NC(=O)CC(C)C [Example 716] | 2 | 31 | –
10 | CC(C)COC(=O)Nc1ccc(C(=O)N2Cc3cccn3Cc3ccccc32)cc1 [Example 714] | 23 | 41 | –
11 | O=C(Nc1ccc(C(=O)N2Cc3cccn3Cc3ccccc32)c(Cl)c1)c1ccccc1F [Example 523, N-[4-(5H-pyrrolo[2,1-c][1,4]benzodiazepin-10(11H)-ylcarbonyl)-3-chlorophenyl]-2-fluorobenzamide] | 110 | 2.8 | Osmolality (Vasopressin V2): 1218 mOsm/kg; Urine Volume (Vasopressin V2): 5 ml/4 hrs
12 | O=C(Nc1ccc(C(=O)N2Cc3cccn3Cc3ccccc32)cc1)c1ccc(F)cc1C(F)(F)F [Example 693, N-[4-(5H-pyrrolo[2,1-c][1,4]benzodiazepin-10(11H)-ylcarbonyl)phenyl]-2-(trifluoromethyl)-4-fluorobenzamide] | 21 | 5 | –
13 | O=C(Nc1ccc(C(=O)N2Cc3cccn3Cc3ccccc32)c(Cl)c1)c1ccc(F)cc1C(F)(F)F [Example 707, N-[4-(5H-pyrrolo[2,1-c][1,4]benzodiazepin-10(11H)-ylcarbonyl)-3-chlorophenyl]-2-(trifluoromethyl)-4-fluorobenzamide] | 200 | 6 | –
14 | O=C(Nc1ccc(C(=O)N2Cc3cccn3Cc3ccccc32)c(Cl)c1)c1ccc(C(F)(F)F)cc1F [Example 696, N-[4-(5H-pyrrolo[2,1-c][1,4]benzodiazepin-10(11H)-ylcarbonyl)-3-chloro-phenyl]-2-fluoro-4-(trifluoromethyl)benzamide] | 12400 | 65 | –
15 | Cc1ccc(F)cc1C(=O)Nc1ccc(C(=O)N2CCc3cccn3-c3ccccc32)c(Cl)c1 [Example 612, N-[4-[(6,7-Dihydro-5H-pyrrolo[1,2-a]-[1,5]benzodiazepin-5-yl)carbonyl]-3-chlorophenyl]-5-fluoro-2-methyl-benzamide] | 1700 | 10 | –
16 | Cc1ccc(F)cc1C(=O)Nc1ccc(C(=O)N2Cc3ccc(CN(C)C)n3Cc3ccccc32)c(Cl)c1 [Example 668, N-[4-[[3-[(dimethylamino)methyl]-5H-pyrrolo[2,1-c][1,4]benzodiazepin-10(11H)-yl]carbonyl]-3-chlorophenyl]-5-fluoro-2-methylbenzamide] | 170 | 29 | Osmolality (Vasopressin V2): 378 mOsm/kg; Urine Volume (Vasopressin V2): 20.7 ml/4 hrs
17 | COc1cc(C(=O)N2Cc3cccn3Cc3ccccc32)ccc1NC(=O)c1cc(C)ccc1C [Example 704, N-[4-(5H-pyrrolo[2,1-c][1,4]benzodiazepin-10(11H)-ylcarbonyl)-2-methoxyphenyl]-2,5-dimethylbenzamide] | – | – | inhibition at 1 µM [1]: 100%; inhibition at 1 µM [2]: 92%
18 | Cc1ccccc1C(=O)Nc1ccc(C(=O)N2Cc3ccc(CN(C)C)n3Cc3ccccc32)c(Cl)c1 [Example 669, N-[4-[[3-[(dimethylamino)methyl]-5H-pyrrolo[2,1-c][1,4]benzodiazepin-10(11H)-yl]carbonyl]-3-chlorophenyl]-2-methylbenzamide] | 71 | 35 | –
